We go through five compounds from patent publication US20190247371A1, “METHODS FOR TREATING SMALL CELL LUNG CANCERS BY USING PHARMACEUTICAL COMPOSITIONS OR COMBINATIONS COMPRISING INDOLIZINO[6,7-B]INDOLE DERIVATIVES” (priority 2016, published 2019).

Where two headings read alike, the source gives them in different places. Some results are limits rather than exact numbers.

Data set [1] concerns SCLC H211 cells. Nature of the data set: Cell cycle analysis by flow cytometry, H211 cells. The class given is cell-based. To be noted: 24, 48, 72 h, FIG. 9. Here is the method: H211 cells were treated with various concentrations of (A) BO-1978, (B) BMN-673, or (C) BO-1978 plus BMN-673 at 24, 48, and 72 h. At the end of treatment, the cells were harvested by trypsinization, fixed in ice-cold ethanol, stained with propidium iodide, and subjected to cell cycle analysis with a flow cytometer.
In the present invention, the SCLC H211 cells were treated with the combination of BO-1978 and BMN 673 or HY-10130 for 72 h. Cell survival was analyzed by PrestoBlue Assay. The combination index (CI) was calculated using CompuSyn software (Chou 2006^61).
For orientation: Flow cytometry measures light scatter and fluorescence of single cells or particles in a stream.

A further data set concerns H82 cells. In words: alamarBlue cytotoxicity assay, SCLC H82 cells. It is filed as cell-based. To be noted: read-out: IC50, concentration required to inhibit cell growth by 50%. The protocol: (§1) The inhibitory effect of BO-1978 on the cell growth of SCLC cell lines in vitro was examined. The cytotoxicity was assayed using alamarBlue® reagent (AbD Serotec) as previously described in U.S. Pat. No. 8,703,951 B2. In brief, H82, H211 and H526 cells were seeded to a 96 well plate with 5000, 1000 and 3000 cells per well, respectively, and incubated for 24 h. The growing cells were treated with BO-1978, cisplatin, etoposide or irinotecan at serial-diluted concentrations for 72 h at 37° C. An aliquot of alamarBlue® reagent (AbD Serotec) was added and the cultures were incubated for 5 h. The fluorescence at excitation 530 nm and emission 590 nm was read with a plate reader. The proliferation rate was calculated according to the manufacturer's instruction. The values of IC50 (50% inhibition concentration) for each compound were determined from dose-effect relationship using the CompuSyn software (Chou 2010^44).

Data set [2] concerns SCLC H211 cells. Nature of the data set: SCLC H211 tumor xenograft model, single agents. To be noted: same dosages and route as H526 study, FIG. 3. The class given is in vivo, nude mice. The protocol: H211 (3×10^6) were subcutaneously implanted into nude mice. When rumor size reached 100-200 mm^3, BO-1978, etoposide, irinotecan, and cisplatin were i.v. administered as indicated. Tumor size and body weight were taken at the time indicated. A, tumor size; and B, body weight.
In another experiment, the effect of BO-1978 on the inhibition of SCLC H211 cells, a fast growing cell line, was evaluated in xenograft model. Mice were treated with the tested compounds under the same dosages and administration route as described above.

A further data set has as its system PC9/gef B4 cells. As to conditions: cited from earlier work.
In data set [3] the test system is H526 cells. In words: alamarBlue cytotoxicity assay, SCLC H526 cells. It is filed as cell-based. As to conditions: read-out: IC50, concentration required to inhibit cell growth by 50%. The protocol:
as §1
(In general: The colour change of resazurin is a common sign of viable cells or microbes.)

The conditions of data set [4]: preclinical toxicity studies; cited from earlier work.
Another data set has as its system SCLC H211. Nature of the data set: SCLC H211 xenograft, BO-1978 and irinotecan alone or in combination. The class given is in vivo, nude mice. From the text:
H211 cells (3×10^6) were subcutaneously implanted into nude mice. When tumor size reached 100-200 mm^3, BO-1978 and irinotecan, cither alone or in combination were i.v. administered as indicated. Tumor size and body weight were taken at the time indicated. A, tumor size; and B, body weight.
In another experiment, the therapeutic efficacy of BO-1978 (alone) or in combination with irinotecan against SCLC H211 was investigated in xenograft models (FIG. 7). The H211 bearing mice (n=5) were administered with BO-1978 (alone, 40 mg/kg, QD×5), irinotecan (alone, 30 mg/kg, QD×5), and BO-1978 (40 mg/kg)+irinotecan (30 mg/kg) (QD×5) via iv inj.

The subject of data set [5] is H211 cells. Nature of the data set: alamarBlue cytotoxicity assay, SCLC H211 cells. To be noted: read-out: IC50, concentration required to inhibit cell growth by 50%. It is filed as cell-based. Here is the method:
as §1

Data set [6] has as its system H211 cells. Nature of the data set: alamarBlue combined treatment cytotoxicity, H211 cells. The class given is cell-based. As to conditions: co-treated with irinotecan at various ratios, 72 h, FIG. 5. Here is the method: H211 cells were seeded and treated with various concentrations of BO-1978, or therapeutic agents either alone or in combination for 72 h. Cell survival was analyzed using alamarBlue assay. CI indicates combination index. A, BO-1978 and cisplatin; B, BO-1978 and etoposide; and C, BO-1978 and irinotecan.
(§2) Combination therapy is therapy that uses more than one drug for therapy. […] The resulting combination index (CI) theorem of Chou-Talalay offers quantitative definition for additive effect (CI=1), synergism (CI<1), and antagonism (CI>1) in drug combinations (Chou 2010^44).

The subject of a further data set is SCLC H526 cells. Nature of the data set: SCLC H526 tumor xenograft model, single agents. The class given is in vivo. As to conditions: for body weight change: doses within MTD: BO-1978 40 mg/kg QD×5, etoposide 10 mg/kg Q2D×3, irinotecan 30 mg/kg QD×6, cisplatin 6 mg/kg Q4D×3, FIG. 2B. The protocol:
H526 cells (1×10^7) were subcutaneously implanted into nude mice. […] Tumor size and body weight were taken at the time indicated. A, average tumor size changes; B, average body weight changes; and C, Kaplan-Meyer survival curves.
The animals used in this study were treated exactly according to the guidelines of the Academia Sinica Institutional Animal Care and Utilization Committee. Male athymic nude mice in 5 weeks of age were obtained from the National Laboratory Animal Center (Taipei, Taiwan) and housed for 1 week before performing experiments H526 cells (1×10^7) were subcutaneously implanted into nude mice (five groups, each 4 mice). […] Etoposide (10 mg/kg Q2D×3), irinotecan (30 mg/kg QD×6), and cisplatin (6 mg/kg Q4D×3) were used as the positive control and were administered as indicated.

Data set [7] has as its system H526 cells. In words: alamarBlue combined treatment cytotoxicity, H526 cells. The class given is cell-based. To be noted: co-treated with irinotecan at various ratios, 72 h, FIG. 4. The protocol:
Cell survival was analyzed using alamarBlue assay. CI indicates combination index A, BO-1978 and cisplatin; B, BO-1978 and etoposide; and C, BO-1978 and irinotecan.
as §2

The next data set deals with SCLC H526 xenografts. Nature of the data set: SCLC H526 xenograft, BO-1978 and irinotecan alone or in combination. The class given is in vivo, nude mice. Here is the method: H526 cells (1×10^7) were subcutaneously implanted into nude mice. When tumor size reached 100-200 mm^3, BO-1978 and irinotecan, either alone or in combination were i.v. administered as indicated. Tumor size and body weight were taken at the time indicated A, tumor size; and B, body weight.
The mice (n=5) bearing SCLC H526 xenografts were treated with BO-1978 (alone, 40 mg/kg, Q2D×5), irinotecan (alone, 30 mg/kg, Q2D×5), and BO-1978 (40 mg/kg)+irinotecan (30 mg/kg) (Q2D×5) via iv inj.

The test system of data set [8] is EGFR wild-type and mutant NSCLC tumors. To be noted: cited from earlier work.
The subject of a further data set is NSCLC cells. As to conditions: in vitro; cited from earlier work.

Take `Cn1ncnc1[C@H]1c2n[nH]c(=O)c3cc(F)cc(c23)N[C@@H]1c1ccc(F)cc1` [BMN 673, (8S,9R)-5-Fluoro-8-(4-fluorophenyl)-9-(1-methyl-1H-1,2,4-triazol-5-yl)-2,7,8,9-tetrahydro-3H-pyrido[4,3,2-de]phthalazin-3-one, reference compound]: in the data set with SCLC H211 cells [1], the “effect on G2/M phase of cell cycle” value is “delayed the progression of the G2/M phase” and the “subG1 cells (apoptotic death)” value is recorded as “did not induce subG1 cells”.

Turning to `CCc1c(CO)c(CO)c2n1Cc1c(c3ccccc3n1C)C2` [BO-1978, [3-ethyl-6-methyl-6,11-dihydro-5H-indolizino[6,7-b]indole-1,2-diyl]dimethanol], in the data set with H82 cells (Homo sapiens, NCI-H82, H82, 72 h, mean ± S.D. of 3 independent experiments), the IC50 was determined as 350 ± 280 nM. Also, in the data set with SCLC H211 cells [2], the “inhibition of tumor growth” value is reported as “more potent than the drugs used for comparison”. Also, the “killing of cells with acquired gefitinib resistance” value with PC9/gef B4 cells is reported as “effectively kills”. The IC50 in the data set on H526 cells [3] (Homo sapiens, NCI-H526, H526, 72 h, mean ± S.D. of 3 independent experiments) turned out to be 76 ± 26 nM. Besides, in [4], the toxicity in mice entry was “does not cause apparent toxicity”. The “therapeutic efficacy, mono-drug comparison” value with SCLC H211 (40 mg/kg QD×5 iv, n=5) is “more potent than irinotecan (alone)”. Besides, in the data set with SCLC H211 (QD×5 iv), the “day of tumor relapse” value worked out at 18 days and the “day tumor CR was seen” value is 14 days. Moreover, the IC50 in the data set with H211 cells [5] (Homo sapiens, NCI-H211, H211, 72 h, mean ± S.D. of 3 independent experiments) is 148 ± 1 nM. Further, the cytotoxicity of co-treatment entry in the data set on H211 cells [6] was “enhanced the cytotoxicity”. In addition, in the data set on SCLC H211 cells [1], the “effect on G2/M phase of cell cycle” value is “induced severe G2/M arrest” and the “subG1 cells (apoptotic death)” value was “appearance of the subG1 cells at high doses”. In addition, the “therapeutic effect on tumor size” value with SCLC H526 cells (BO-1978 40 mg/kg QD×5 iv, FIG. 2A) was “more efficacious than etoposide, irinotecan and cisplatin”. In addition, the body weight change result with SCLC H526 cells is “did not cause body weight lost”. Further, in the data set on SCLC H526 cells (one out of 4 mice, FIG. 2C), the survival term is on record as above 430 days. Besides, the cytotoxicity of co-treatment result with H526 cells [7] is reported as “enhanced the cytotoxicity”. Also, the tumor growth suppression result with SCLC H526 xenografts (40 mg/kg Q2D×5 iv, n=5) is recorded as “significantly suppressed tumor growth”. Moreover, in the data set on SCLC H526 xenografts (day 14, Q2D×5 iv), the “mice with complete remission (CR)” value was 4/5 and the “mice with tumor <100 mm3” value is 1/5. In [8] (xenograft and orthotopic lung tumor models), the body weight loss entry is “negligible body weight loss”. For the same compound, the “therapeutic efficacy in nude mice bearing NSCLC” value in data set [8] (xenograft and orthotopic models) is “potent therapeutic efficacy”. Besides, the “cytotoxicity against cell growth of various NSCLC cells” value in the data set on NSCLC cells is “significant cytotoxicity”.

Take `N.N.[Cl][Pt][Cl]` [Cisplatin, cis-diaminedichloroplatinum]: the IC50 in the data set on H82 cells (H82, 72 h, mean ± S.D. of 3 independent experiments) was 340 ± 80 nM; in the data set with H526 cells [3] (H526, 72 h, mean ± S.D. of 3 independent experiments), 660 ± 250 nM; in the data set on H211 cells [5] (H211, 72 h, mean ± S.D. of 3 independent experiments) it was 570 ± 290 nM. The “day mice were sacrificed because tumor size was over 2,500 mm^3” value with SCLC H526 cells turned out to be 35 days. The body weight change result in the data set on SCLC H526 cells was “did not cause body weight lost”.

`COc1cc([C@@H]2c3cc4c(cc3[C@@H](O[C@@H]3O[C@@H]5CO[C@@H](C)O[C@H]5[C@H](O)[C@H]3O)[C@H]3COC(=O)[C@H]23)OCO4)cc(OC)c1O` [Etoposide]: the IC50 was 146 ± 2 nM with H82 cells (Homo sapiens, NCI-H82, 72 h); 50 ± 20 nM in the data set with H526 cells [3] (Homo sapiens, NCI-H526, 72 h); 70 ± 30 nM in the data set on H211 cells [5] (Homo sapiens, NCI-H211, 72 h). Further, in the data set on SCLC H526 cells, the “day mice were sacrificed because tumor size was over 2,500 mm^3” value turned out to be 35 days. Also, the body weight change result in the data set on SCLC H526 cells is given as “did not cause body weight lost”.

On to `CCc1c2c(nc3ccc(OC(=O)N4CCC(N5CCCCC5)CC4)cc13)-c1cc3c(c(=O)n1C2)COC(=O)[C@]3(O)CC` [Irinotecan], for which the IC50 with H82 cells (Homo sapiens, NCI-H82, 72 h) is 1200 ± 70 nM; with H526 cells [3] (Homo sapiens, NCI-H526, 72 h), 1180 ± 570 nM; with H211 cells [5] (Homo sapiens, NCI-H211, 72 h), 30 ± 10 nM. In addition, in the data set on SCLC H526 cells, the “day mice were sacrificed because tumor size was over 2,500 mm^3” value was found to be 45 days. Also, the body weight change result in the data set with SCLC H526 cells is reported as “did not cause body weight lost”. For the same compound, the “day of tumor relapse” value with SCLC H526 xenografts (30 mg/kg Q2D×5 iv) was found to be 15 days.
